Laboratory results taken from patent publication US12122787B2, “Fused pyridone compound, and preparation method therefor and use thereof” (SHANGHAI JEMINCARE PHARMACEUTICALS CO., LTD, priority 2019, dated 2024).
Read-outs that look alike come from different tables or passages of the source.

Experiments:
[1] = In vivo pharmacokinetic evaluation in mice by intravenous injection and oral administration; details: male ICR mice
Experimental: In this experimental embodiment, in vivo pharmacokinetic evaluation was performed in mice by intravenous injection and oral administration.
Experimental methods and conditions: Male ICR mice were given a single dose of 1 mg/Kg (intravenous injection, solvent 5% DMSO+15% Solutol+80% saline) and 5 mg/Kg (intragastric administration, solvent 1% Tween80/2% HPMC/97% water) of the compound to be tested, respectively; 5 min, 15 min, 30 min, 1 hour, 2 hours, 4 hours, 6 hours, 8 hours, 24 hours after administration, blood was collected from the orbital vein, and each sample was collected at approximately 0.20 mL, anticoagulated with sodium heparin, placed on ice after collection, and centrifuged within 1 hour to separate the plasma for measurement. Plasma drug concentration in plasma was detected by liquid chromatography tandem mass spectrometry (LC/MS/MS) to calculate pharmacokinetic parameters.

[2] = tested on: phosphorylated ERK (Thr202/Tyr204) in NCI-H358 cells expressing mutant RAS(G12C); assay: Inhibition of RAS-mediated signal transduction: phosphorylated ERK ELISA in NCI-H358 cells; assay type: cell-based; details: NCI-H358 cells, 2 hours of treatment, pERK normalized by Janus Green B, read-out: p-ERK IC50 (NCI H358)
[3] = tested on: MIA PaCa2 cells expressing KRAS-G12C; assay: Growth inhibition of tumor cell line expressing KRAS-G12C (Cell Titer Glo), MIA PaCa2; assay type: cell-based; details: MIA-Paca2, 72 hours
How it was run: (§1)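 NCI-H358 (RPMI, 10% FBS) and MIA PaCa2 (DMEM, 10% FBS, 2.5% horse serum) seeded at 1000 and 800 cells/well, adhered overnight, then treated 72 h at 0.1% DMSO. ATP by Cell Titer Glo; GI50 fitted from 9 concentrations at ⅓-fold dilution versus DMSO control.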

[4] = tested on: NCI-H358 cells expressing KRAS-G12C; assay: Growth inhibition of tumor cell line expressing KRAS-G12C (Cell Titer Glo), NCI-H358; assay type: cell-based
How it was run: as §1

[5] = mouse, po, intragastric administration 5 mg/kg, plasma
[6] = mouse, intravenous administration 1 mg/kg, plasma
[7] = intragastric administration 5 mg/kg vs intravenous 1 mg/kg
[8] = intragastric administration 5 mg/kg, plasma
[9] = intravenous administration 1 mg/kg, plasma

SMILES | F (%) [1, 7] [%] | AUCinf [1, 8] [ng·h/mL] | Cmax [1, 8] [ng/mL] | T1/2 [1, 8] [h] | AUCinf [1, 9] [ng·h/mL] | Cl [1, 9] [mL/min/kg] | T1/2 [1, 9] [h] | Vz [1, 9] [L/kg] | GI50 [3] [nM] | GI50 ([4]; NCI-H358, 72 hours) [nM] | GI50 ([3]; Homo sapiens, MIA PaCa-2, 72 h) [nM] | GI50 ([4]; Homo sapiens, NCI-H358, 72 h) [nM] | IC50 [2] [nM] | IC50 ([2]; Homo sapiens, NCI-H358, 2 h) [nM] | further results
C=CC(=O)N1CCN(c2nc(=O)n(-c3c(C)ccnc3C(C)C)c3nc(-c4c(O)cccc4F)c(F)cc23)[C@@H](C)C1 [AMG 510] | – | – | – | – | – | – | – | – | – | – | – | – | – | – | bioavailability ([1]; mouse, plasma, oral, intragastric administration 5 mg/kg vs intravenous 1 mg/kg): 17.6%; AUC(0-inf) [1, 5]: 155 ng·h/mL; half-life [1, 5]: 0.57 h; Cmax ([1]; mouse, po, intragastric administration 5 mg/kg, plasma, read-out: Cmax): 177 ng/mL; AUC(0-inf) [1, 6]: 176 ng·h/mL; clearance [1, 6]: 94.6 mL/min/kg; half-life [1, 6]: 0.26 h; Vd ([1]; mouse, intravenous administration 1 mg/kg, plasma, read-out: Vz): 2.16 L/kg
C=CC(=O)N1CC2COc3c(c4cc(F)c(-c5c(O)cccc5F)c(F)c4n(-c4c(C)ccnc4C(C)C)c3=O)N2CC1C (single isomer, unassigned) [Compound 3B-2] | 17.01 | 1984.18 | 746.67 | 3.96 | 2333.44 | 7.14 | 5.99 | 3.7066 | 31 | 5 | – | – | 6 | – | –

Now from value to compound, other results behind:

F (%) [1, 7] [%] | AUCinf [1, 8] [ng·h/mL] | Cmax [1, 8] [ng/mL] | T1/2 [1, 8] [h] | AUCinf [1, 9] [ng·h/mL] | Cl [1, 9] [mL/min/kg] | T1/2 [1, 9] [h] | Vz [1, 9] [L/kg] | GI50 [3] [nM] | GI50 ([4]; NCI-H358, 72 hours) [nM] | GI50 ([3]; Homo sapiens, MIA PaCa-2, 72 h) [nM] | GI50 ([4]; Homo sapiens, NCI-H358, 72 h) [nM] | SMILES | IC50 [2] [nM] | IC50 ([2]; Homo sapiens, NCI-H358, 2 h) [nM] | further results
20.30 | 526.88 | 133.67 | 1.78 | 519.01 | 32.11 | 1.76 | 4.89344 | 3 | 5 | – | – | C=CC(=O)N1C[C@@H]2C(=O)N(CCN(C)C)c3c(c4cc(Cl)c(-c5c(F)cccc5OC)c(F)c4n(-c4c(C)ccnc4C(C)C)c3=O)N2C[C@H]1C (atropisomer, axis not shown) [Compound 27C] | 4 | – | –
– | – | – | – | – | – | – | – | – | – | 2400 | 523 | C=CC(=O)N1C[C@@H]2COc3c(c4cc(Cl)c(-c5c(O)cccc5F)c(F)c4n(C)c3=O)N2C[C@H]1C [Compound 4A] | – | 159 | –
– | – | – | – | – | – | – | – | – | – | 67 | 44 | C=CC(=O)N1C[C@@H]2C(=O)N(CCN(C)C)c3c(c4cc(Cl)c(-c5c(O)cccc5F)nc4n(-c4c(C)ccnc4C(C)C)c3=O)N2C[C@H]1C [Compound 29A] | – | 124 | –
